# Assay results reported in patent US12458688B2, “Epitopes” (Scancell Limited, priority 2018, dated 2025).
# Where two headings read alike, the source gives them in different places.
# What was measured:
# HLA-DP4 = molecular target: T1, HLA-DP4 (Homo sapiens, UniProt P04440+P20036); assay: DP4 competition assay with biotinylated Hep B peptide; conditions: inhibition of biotinylated Hep B binding to HLA-DP4; 5 fold excess test peptide, equal amount for unlabelled Hep B
# T1 sequence (P20036 29-260): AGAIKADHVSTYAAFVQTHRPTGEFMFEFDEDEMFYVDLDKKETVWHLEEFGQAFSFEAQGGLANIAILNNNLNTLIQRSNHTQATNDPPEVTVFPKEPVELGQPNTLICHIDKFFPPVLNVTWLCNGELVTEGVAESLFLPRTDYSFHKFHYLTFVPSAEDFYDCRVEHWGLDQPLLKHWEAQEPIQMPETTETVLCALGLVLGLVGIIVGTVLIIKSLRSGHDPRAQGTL
# T1 sequence (P04440 30-258): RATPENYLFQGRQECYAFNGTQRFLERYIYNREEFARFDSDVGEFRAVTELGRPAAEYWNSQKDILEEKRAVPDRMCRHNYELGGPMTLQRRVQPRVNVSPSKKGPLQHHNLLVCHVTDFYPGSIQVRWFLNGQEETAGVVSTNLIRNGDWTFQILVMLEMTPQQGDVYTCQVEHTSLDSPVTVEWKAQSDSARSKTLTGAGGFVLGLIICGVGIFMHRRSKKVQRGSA
# Method: 2×T175 gave 2.5×10^7 B16 HHDII/DP4 (B16F1 β2M H2Ab1 dKO A35 HHDII/DP4 H7/2E9/F9 p14) cells. This was enough for 5 preps using the following protocol with Mem-PER™ Plus Membrane Protein Extraction Kit (thermo-scientific cat #89842).
# 5×10^6 cells were resuspended in the growth media by scraping the cells off the surface of the plate with a cell scraper and then centrifuged at 300 g for 5 mins. The cell pellet was washed with 3 ml of Cell Wash Solution and centrifuged at 300 g for 5 mins. The supernatant was removed and discarded. The cells were resuspended in 1.5 ml of Cell Wash Solution and transfer to a 2 ml centrifuge tube and centrifuged at 300 g for 5 mins. The supernatant was discarded. 0.75 ml of permeabilization buffer was added to the cell pellet and vortexed briefly to obtain a homogeneous cell suspension and incubated for 10 mins at 4° C. with constant mixing. The permeabilized cells were centrifuge for 15 mins at 16,000g before carefully removing the supernatant containing cytosolic proteins and transfering to a new tube. 0.5 ml of solubilization buffer was added to the pellet and resuspend prior to incubating at 4° C. for 30 minutes with constant mixing prior to centrifugation at 16,000g for 15 mins at 4° C. The supernatant containing solubilized membrane and membrane-associated proteins was transfered to a new tube. Aliquots were frozen at −80° C. for future use. 12.5 μl Halt™ Protease and Phosphatase Inhibitor Cocktail, EDTA-free (100X) thermo-scientific (Catalog number 78445) was added prior to freezing.
# High binding plates were coated with streptavidin (Sigma S4762 at 1 mg/ml) 1/500 in PBS and incubated overnight at 4° C. The plates were blocked with 1% BSA in PBS for 4 hrs at room temp and washed 3×PBS/0.5% Tweenx. 450 μl of cell prep lysate (B16F1 B16 HHDII/DP4 H7/2E9/F9) was mixed with 50 μg test peptide (see below) or 10 μg of unlabelled Hep B peptide for 30 mins. 10 μg biotinylated Hep B peptide was added & incubated for 4 hrs at 37° C.:
# Lysate/peptide mix was added to the plates at 100 μl/well and incubated for 4 hrs at room temperature. Plates were washed 3× with PBS/0.5% Tween. 100 μl per well of Leinco anti-Human HLA-DP4 clone B7/21 #H260 1 mg/ml at 1/500 dilution in 1% BSA/PBS was added and incubated for 1 hr at room temperature prior to washing 3× PBS/0.5% Tween. Goat anti-mouse lgG3-HRP at 0.5 mg/ml 1/500 100 μl per well (Invitrogen #M32607) diluted in 1% BSA/PBS) was added for 1 hr at room temperature prior to washing and adding 150 μl of TMB substrate to each well. The reaction was stopped with 50 μl of 2N H2SO4 and plates read plate at 450 nm.
# To ensure that the biotinylation of Hep B had not interfered with its binding, HLA-DP4 was incubated with equal amounts of biotinylated and unlabelled Hep B peptide. Unlabelled peptide competed equally reducing binding by 47% (FIG. 53b).
# The biotinylated HepB peptide was then incubated with a 5 fold excess of the unlabelled homocitrulline peptides. All peptides inhibited the binding of biotinylated Hep B to HLA-DP4 but to varying levels (FIG. 53c-e).
# HLA-HHDII/DP4 mice = assay: Ex vivo IFNγ ELISpot after peptide immunisation, HHDII/DP4 mice; type: in vivo, mouse; conditions: for IFNγ ELISpot response: 3 immunisations with CpG/MPLA, day 21
# Method: (§1) C57BL/6 mice (Charles River, UK), HLA-DR4 mice (Model #4149, Taconic, USA), HLA-A2/DR1 (HHDII/DR1, Pasteur Institute), HLA-A2.1+/+HLA-DP4+/+hCD4+/+ (HLA-HHDII/DP4) transgenic mice (EM: 02221, European Mouse Mutant Archive) described in patent WO2013/017545 A1 (EMMA repository, France) were used, aged between 8 and 12 weeks. Peptides were dissolved in PBS to 1 mg/ml and then emulsified (a series of dilutions) with CpG ODN 1826 and MPLA 6 μg/mouse of each (Invivogen, UK). Peptides (25 μg/mouse) were injected subcutaneously at the base of the tail. Mice were immunised at days 1, 7 and 14 for peptide immunisation. Spleens were removed for analysis at day 21 unless stated otherwise.
# (§2) ELISpot assays were performed using murine IFNγ, IL-17 and IL-10 capture and detection reagents according to the manufacturer's instructions (Mabtech, Sweden). In brief, anti-IFNγ, IL-17 and IL-10 specific antibodies were coated onto wells of 96-well Immobilin-P plate. Synthetic peptides (at various concentrations) and 5×10^5 per well splenocytes were added to wells of the plate in quadruplicate Tumour target cells were added where relevant at 5×10^4/well in triplicate and plates incubated for 40 hrs at 37° C. After incubation, captured IFNγ, IL-10 and IL-17 were detected by biotinylated anti-IFNγ, IL-10 and IL-17 antibodies and developed with a streptavidin alkaline phosphatase and chromogenic substrate. Lipopolysaccharide (LPS; 5 μg/ml) was used as a positive control. For MHC blocking studies, anti-CD4 blocking antibody (GK1.5) or anti-CD4 blocking antibody (RPA-T4) for HHDII/DP4 mice which express human CD4 and anti-CD8 blocking antibody (2.43) from Bioxcell were used at 20 μg/ml. Spots were analysed and counted using an automated plate reader (Cellular Technologies Ltd).
# Screening was performed to identify potential homocitrullinated ALDOA epitopes in transgenic HHDII/DP4 and HHDII/DR1 mice. Mice were immunised with pools of human homocitrullinated peptides. […] Each pool was administered as three immunisations containing 20 μg of each peptide and CpG/MPLA as an adjuvant. After 21 days the mice were culled and the immune responses to each peptide within the immunising pool were assessed by ex vivo ELISpot in HHDII/DP4 (FIG. 4b) and HHDII/DR1 mice (FIG. 4d). […] Our predictions therefore identified 3/5 peptides which could induce a T cell response. […] Of the responding peptides ALDOA 74-93 Hcit and 140-157 Hcit peptides are homologous in human and mice therefore these two peptides were selected for further investigation. Minimal IL-10 (FIG. 6b) or IL-17 (FIG. 6c) responses were seen to Aldolase peptides in HHDII/DP4 mice.
# Using this combination of predictions, 5 CyK8 peptides containing homocitrulline were synthesised (Table 4). Screening was performed to identify potential homocitrullinated Cyk8 epitopes in transgenic HHDII/DP4. Mice were immunised with pools of human homocitrullinated peptides. […] Each pool was administered as three immunisations containing 20 μg of each peptide and CpG/MPLA as an adjuvant. After 21 days the mice were culled and the immune responses to each peptide within the immunising pool were assessed by ex vivo ELISpot in HHDII/DP4 (FIG. 10a). […] The responses to CyK8 101-120 Hcit, 112-131 Hcit, 182-201 Hcit, 371-388 Hcit and 381-399 Hcit immunisation were characterised for cross reactivity to the wt peptide sequence. […] Thus a key characteristic of immunogenic peptides is they express homocitrulline. All of these peptides (100%) were immunogenic. Thus a high predicted HLA-DP4 binding affinity (<30), the presence of homocitrulline residues in the core region, the peptide being amphipathic in nature with a predominantely spiral conformational structure upon 3D modelling, and the existence of homology between the mouse and human sequences defines immunogenicity. When this model was applied retrospectively to include the vimentin and ALDOA peptides 8/9 (88%) were correctly predicted. […]
# HLA-DP4 (human) = assay: DP4 competition ELISA; competitor biotinylated Hep B peptide; 5 fold excess of unlabelled peptide
# HLA-HHDII/DR1 mice = assay: Ex vivo IFNγ ELISpot after peptide immunisation, HHDII/DR1 mice; type: in vivo, mouse; conditions: for IFNγ ELISpot response: 3 immunisations with CpG/MPLA, day 21
# Method: as §1, §2
# Screening was performed to identify potential homocitrullinated vimentin epitopes in mice. Mice were immunised with pools of homocitrullinated peptides. […] Each pool was administered as three immunisations containing 20 μg of each peptide and CpG/MPLA as an adjuvant on day 1, 8 and 15. On day 21 the mice were culled and the immune responses to each peptide within the immunising pool were assessed by ex vivo ELISpot. Given that different mouse strains have different MHC repertoires a number of strains were used for screening. Peptide responses were assessed in transgenic strains expressing human DR4 or HHDII/DR1 in a C57BL/6 background (see methods). […]
# The five selected homocitrullinated Cyk8 peptides were also screened in HHDII/DR1 transgenic mice. […] Response to Cyk8 112Hcit peptide in the HHDII/DR1 mice was lost in the presence of CD8 blocking antibody but less effect of the CD4 blocking antibody was seen (FIG. 12b). […] Responses to homocitrullinated Cyk8 peptides show both CD4 and CD8 mediated responses.
# [1] = splenocytes after 7 days culture
substance,measurement,setting,value
"KDGADFAKWRCVLKIGEH [Aldolase A 140-157 WT, reference compound]",% inhibition,HLA-DP4,29%
"GFFLLTRILTIPQ [HepB, reference compound]",% inhibition,HLA-DP4,47%
DVAASEFFRSG-Hcit-YDLDF-Hcit-SP [Alpha enolase 245-264 Hcit],IFNγ ELISpot response,HLA-HHDII/DP4 mice,stimulation of IFNγ responses
same,IFNγ response in presence of CD4 blocking antibody,HLA-HHDII/DP4 mice; [1],lost
Cytokeratin 8 182-202 Hcit (peptide),% inhibition,HLA-DP4 (human),61%
VLAAVY-Hcit-AL [Aldolase 209-217],cross reactivity of Hcit response to wt peptide,HLA-HHDII/DR1 mice,lower reactivity
same,IFNγ ELISpot response,HLA-HHDII/DR1 mice,strong responses
same,IFNγ ELISpot response,HLA-HHDII/DP4 mice,stimulation of IFNγ responses
same,IFNγ response in presence of CD8 blocking antibody,HLA-HHDII/DP4 mice; [1],lost
GGSLP-Hcit-VEA-Hcit-FINYV-Hcit-NCFR [NPM 258-277 Hcit],cross reactivity of Hcit response to wt peptide,HLA-HHDII/DP4 mice,significantly higher
same,IFNγ ELISpot response,HLA-HHDII/DP4 mice,stimulation of IFNγ responses
same,IFNγ response in presence of CD4 blocking antibody,HLA-HHDII/DP4 mice; [1],blocking of the response
same,IFNγ response in presence of CD8 blocking antibody,HLA-HHDII/DP4 mice; [1],not with the CD8 blocking antibody
EDFSETLTRA-Hcit-FEELNMDLFR [BiP 316-336 Hcit],IFNγ ELISpot response,HLA-HHDII/DP4 mice,stimulation of IFNγ responses
same,IFNγ response in presence of CD4 blocking antibody,HLA-HHDII/DP4 mice; [1],loss of response
Hcit-MLET-Hcit-WSL [Cyk8 117-125Hcit],IFNγ response in presence of CD8 blocking antibody,HLA-HHDII/DR1 mice,lost
same,IFNγ ELISpot response,HLA-HHDII/DR1 mice,generation of responses
same,IFNγ response in presence of CD4 blocking antibody,HLA-HHDII/DP4 mice,not in the presence of CD4 blocking antibody
same,IFNγ response in presence of CD8 blocking antibody,HLA-HHDII/DP4 mice,blocked
same,IFNγ ELISpot response,HLA-HHDII/DP4 mice,generation of responses
Aldolase A 238-256 Hcit (peptide),% inhibition,HLA-DP4 (human),73%
"IGGVILFHETLYQKADDGRP [Aldolase A 74-93 WT, reference compound]",% inhibition,HLA-DP4,27%
YVTE-Hcit-VLAAVY-Hcit-ALSD [Aldolase 204-219 Hcit],cross reactivity of Hcit response to wt peptide,HLA-HHDII/DR1 mice,lower reactivity
same,IFNγ ELISpot response,HLA-HHDII/DR1 mice,strong responses
same,cross reactivity of Hcit response to wt peptide,HLA-HHDII/DP4 mice,significantly higher
same,IFNγ ELISpot response,HLA-HHDII/DP4 mice,stimulation of IFNγ responses
same,IFNγ response in presence of CD4 blocking antibody,HLA-HHDII/DP4 mice; [1],partial loss of response
same,IFNγ response in presence of CD8 blocking antibody,HLA-HHDII/DP4 mice; [1],partial loss of response
"LEQQNKMLETKWSLLQQQKT [Cyk8 112 wt, reference compound]",IFNγ ELISpot response,HLA-HHDII/DR1 mice,no specific response
EELNMDLFRSTM-Hcit-PVQ-Hcit-VL [BiP 328-346 Hcit],cross reactivity of Hcit response to wt peptide,HLA-HHDII/DP4 mice,significantly higher
same,IFNγ ELISpot response,HLA-HHDII/DP4 mice,stimulation of IFNγ responses
same,IFNγ response in presence of CD4 blocking antibody,HLA-HHDII/DP4 mice; [1],loss of response
RSERLA-Hcit-YNQLLRIEEELGS [Alpha enolase 400-419 Hcit],IFNγ ELISpot response,HLA-HHDII/DP4 mice,stimulation of IFNγ responses
same,IFNγ response in presence of CD4 blocking antibody,HLA-HHDII/DP4 mice; [1],lost
Hcit-MALDIEIATYR-Hcit-LLEGEE [Vimentin 390-408 Hcit],IFNγ ELISpot response,HLA-HHDII/DP4 mice,stimulation of IFNγ responses
same,IFNγ response in presence of CD4 blocking antibody,HLA-HHDII/DP4 mice; [1],loss of response
PLRPQNYLFGCEL-Hcit-AD-Hcit- [NPM 11-27 Hcit],IFNγ ELISpot response,HLA-HHDII/DP4 mice,stimulation of IFNγ responses
same,IFNγ response in presence of CD4 blocking antibody,HLA-HHDII/DP4 mice; [1],blocking of the response
same,IFNγ response in presence of CD8 blocking antibody,HLA-HHDII/DP4 mice; [1],not with the CD8 blocking antibody
